{"source": "ChEMBL document CHEMBL4837239", "about": "“Identification of Thieno[3,2-d]pyrimidine Derivatives as Dual Inhibitors of Focal Adhesion Kinase and FMS-like Tyrosine Kinase 3” (J Med Chem, 2021)", "key": {"[1]": {"assay": "Antiproliferative activity against human A375P cells assessed as growth inhibition measured after 72 hrs by CellTiter-Glo assay", "assay_type": "functional", "conditions": "Homo sapiens, A375P"}, "[2]": {"target": "T1, CYP1A2 (Homo sapiens, UniProt P05177)", "T1 sequence (P05177 whole entry)": "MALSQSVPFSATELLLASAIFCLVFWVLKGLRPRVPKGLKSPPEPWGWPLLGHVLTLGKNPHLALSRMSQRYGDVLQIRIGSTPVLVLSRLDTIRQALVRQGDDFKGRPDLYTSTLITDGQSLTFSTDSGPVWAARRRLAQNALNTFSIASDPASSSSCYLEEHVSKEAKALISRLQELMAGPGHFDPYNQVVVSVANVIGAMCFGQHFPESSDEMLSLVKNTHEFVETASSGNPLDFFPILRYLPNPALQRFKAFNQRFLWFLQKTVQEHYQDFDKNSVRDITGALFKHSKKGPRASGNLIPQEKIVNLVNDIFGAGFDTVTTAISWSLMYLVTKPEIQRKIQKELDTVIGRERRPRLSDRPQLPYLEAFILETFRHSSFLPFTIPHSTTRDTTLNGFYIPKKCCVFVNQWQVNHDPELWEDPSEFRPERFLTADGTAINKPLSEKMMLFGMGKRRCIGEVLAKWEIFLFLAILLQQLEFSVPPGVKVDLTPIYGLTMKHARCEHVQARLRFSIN", "assay": "Inhibition of CYP1A2 (unknown origin) at 10 uM relative to control", "assay_type": "ADME"}, "[3]": {"target": "CYP2C19 (Homo sapiens, UniProt P33261)", "assay": "Inhibition of CYP2C19 (unknown origin) at 10 uM relative to control", "assay_type": "ADME"}, "[4]": {"target": "Tyrosine-protein kinase JAK3 (Homo sapiens, UniProt P52333)", "assay": "Inhibition of JAK3 (unknown origin)"}, "[5]": {"target": "Non-receptor tyrosine-protein kinase TYK2 (Homo sapiens, UniProt P29597)", "assay": "Inhibition of TYK2 (unknown origin)"}, "[6]": {"target": "T2, Tyrosine-protein kinase Fes/Fps (Homo sapiens, UniProt P07332)", "T2 sequence (P07332 whole entry)": "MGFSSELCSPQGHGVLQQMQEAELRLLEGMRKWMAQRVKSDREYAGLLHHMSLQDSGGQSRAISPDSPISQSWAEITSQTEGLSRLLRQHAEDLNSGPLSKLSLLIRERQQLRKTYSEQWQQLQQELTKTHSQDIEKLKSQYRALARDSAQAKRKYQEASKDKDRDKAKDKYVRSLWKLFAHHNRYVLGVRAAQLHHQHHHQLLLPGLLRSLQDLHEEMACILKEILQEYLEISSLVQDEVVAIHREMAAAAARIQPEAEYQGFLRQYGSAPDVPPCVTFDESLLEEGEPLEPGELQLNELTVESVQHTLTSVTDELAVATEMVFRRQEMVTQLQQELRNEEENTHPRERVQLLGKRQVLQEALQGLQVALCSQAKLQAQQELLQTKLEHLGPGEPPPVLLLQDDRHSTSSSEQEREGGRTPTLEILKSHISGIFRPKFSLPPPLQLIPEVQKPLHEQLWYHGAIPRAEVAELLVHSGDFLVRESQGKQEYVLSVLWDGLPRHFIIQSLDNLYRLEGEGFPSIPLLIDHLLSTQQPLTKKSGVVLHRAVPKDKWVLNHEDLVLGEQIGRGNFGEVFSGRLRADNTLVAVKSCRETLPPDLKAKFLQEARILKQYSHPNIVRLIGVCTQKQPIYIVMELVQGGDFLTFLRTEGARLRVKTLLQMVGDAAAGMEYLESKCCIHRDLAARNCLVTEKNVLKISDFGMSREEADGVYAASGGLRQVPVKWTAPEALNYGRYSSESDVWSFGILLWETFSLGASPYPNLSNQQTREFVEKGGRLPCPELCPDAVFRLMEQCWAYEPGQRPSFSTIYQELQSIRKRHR", "assay": "Inhibition of Fes (unknown origin)"}, "[7]": {"target": "T3, Tyrosine-protein kinase JAK1 (Homo sapiens, UniProt P23458)", "assay": "Inhibition of JAK1 (unknown origin)"}, "[8]": {"target": "Proto-oncogene tyrosine-protein kinase Src (Homo sapiens, UniProt P12931)", "sequence (P12931 2-536 limits assumed)": "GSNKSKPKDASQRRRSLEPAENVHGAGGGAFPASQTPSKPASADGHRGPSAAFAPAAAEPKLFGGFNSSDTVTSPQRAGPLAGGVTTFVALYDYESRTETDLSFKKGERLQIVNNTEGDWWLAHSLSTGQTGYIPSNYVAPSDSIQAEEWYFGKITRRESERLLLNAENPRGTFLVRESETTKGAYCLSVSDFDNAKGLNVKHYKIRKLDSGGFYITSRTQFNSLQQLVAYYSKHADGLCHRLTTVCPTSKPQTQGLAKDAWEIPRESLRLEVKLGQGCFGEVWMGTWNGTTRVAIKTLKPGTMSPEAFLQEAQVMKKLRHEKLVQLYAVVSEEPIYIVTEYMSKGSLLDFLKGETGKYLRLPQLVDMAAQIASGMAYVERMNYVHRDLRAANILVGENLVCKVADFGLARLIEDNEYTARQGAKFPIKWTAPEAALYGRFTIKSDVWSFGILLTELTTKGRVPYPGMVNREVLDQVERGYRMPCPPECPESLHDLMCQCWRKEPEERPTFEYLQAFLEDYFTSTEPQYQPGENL", "assay": "Inhibition of Src (unknown origin)"}, "[9]": {"target": "T4, Proto-oncogene tyrosine-protein kinase ROS (Homo sapiens, UniProt P08922)", "T4 sequence (P08922 whole entry)": "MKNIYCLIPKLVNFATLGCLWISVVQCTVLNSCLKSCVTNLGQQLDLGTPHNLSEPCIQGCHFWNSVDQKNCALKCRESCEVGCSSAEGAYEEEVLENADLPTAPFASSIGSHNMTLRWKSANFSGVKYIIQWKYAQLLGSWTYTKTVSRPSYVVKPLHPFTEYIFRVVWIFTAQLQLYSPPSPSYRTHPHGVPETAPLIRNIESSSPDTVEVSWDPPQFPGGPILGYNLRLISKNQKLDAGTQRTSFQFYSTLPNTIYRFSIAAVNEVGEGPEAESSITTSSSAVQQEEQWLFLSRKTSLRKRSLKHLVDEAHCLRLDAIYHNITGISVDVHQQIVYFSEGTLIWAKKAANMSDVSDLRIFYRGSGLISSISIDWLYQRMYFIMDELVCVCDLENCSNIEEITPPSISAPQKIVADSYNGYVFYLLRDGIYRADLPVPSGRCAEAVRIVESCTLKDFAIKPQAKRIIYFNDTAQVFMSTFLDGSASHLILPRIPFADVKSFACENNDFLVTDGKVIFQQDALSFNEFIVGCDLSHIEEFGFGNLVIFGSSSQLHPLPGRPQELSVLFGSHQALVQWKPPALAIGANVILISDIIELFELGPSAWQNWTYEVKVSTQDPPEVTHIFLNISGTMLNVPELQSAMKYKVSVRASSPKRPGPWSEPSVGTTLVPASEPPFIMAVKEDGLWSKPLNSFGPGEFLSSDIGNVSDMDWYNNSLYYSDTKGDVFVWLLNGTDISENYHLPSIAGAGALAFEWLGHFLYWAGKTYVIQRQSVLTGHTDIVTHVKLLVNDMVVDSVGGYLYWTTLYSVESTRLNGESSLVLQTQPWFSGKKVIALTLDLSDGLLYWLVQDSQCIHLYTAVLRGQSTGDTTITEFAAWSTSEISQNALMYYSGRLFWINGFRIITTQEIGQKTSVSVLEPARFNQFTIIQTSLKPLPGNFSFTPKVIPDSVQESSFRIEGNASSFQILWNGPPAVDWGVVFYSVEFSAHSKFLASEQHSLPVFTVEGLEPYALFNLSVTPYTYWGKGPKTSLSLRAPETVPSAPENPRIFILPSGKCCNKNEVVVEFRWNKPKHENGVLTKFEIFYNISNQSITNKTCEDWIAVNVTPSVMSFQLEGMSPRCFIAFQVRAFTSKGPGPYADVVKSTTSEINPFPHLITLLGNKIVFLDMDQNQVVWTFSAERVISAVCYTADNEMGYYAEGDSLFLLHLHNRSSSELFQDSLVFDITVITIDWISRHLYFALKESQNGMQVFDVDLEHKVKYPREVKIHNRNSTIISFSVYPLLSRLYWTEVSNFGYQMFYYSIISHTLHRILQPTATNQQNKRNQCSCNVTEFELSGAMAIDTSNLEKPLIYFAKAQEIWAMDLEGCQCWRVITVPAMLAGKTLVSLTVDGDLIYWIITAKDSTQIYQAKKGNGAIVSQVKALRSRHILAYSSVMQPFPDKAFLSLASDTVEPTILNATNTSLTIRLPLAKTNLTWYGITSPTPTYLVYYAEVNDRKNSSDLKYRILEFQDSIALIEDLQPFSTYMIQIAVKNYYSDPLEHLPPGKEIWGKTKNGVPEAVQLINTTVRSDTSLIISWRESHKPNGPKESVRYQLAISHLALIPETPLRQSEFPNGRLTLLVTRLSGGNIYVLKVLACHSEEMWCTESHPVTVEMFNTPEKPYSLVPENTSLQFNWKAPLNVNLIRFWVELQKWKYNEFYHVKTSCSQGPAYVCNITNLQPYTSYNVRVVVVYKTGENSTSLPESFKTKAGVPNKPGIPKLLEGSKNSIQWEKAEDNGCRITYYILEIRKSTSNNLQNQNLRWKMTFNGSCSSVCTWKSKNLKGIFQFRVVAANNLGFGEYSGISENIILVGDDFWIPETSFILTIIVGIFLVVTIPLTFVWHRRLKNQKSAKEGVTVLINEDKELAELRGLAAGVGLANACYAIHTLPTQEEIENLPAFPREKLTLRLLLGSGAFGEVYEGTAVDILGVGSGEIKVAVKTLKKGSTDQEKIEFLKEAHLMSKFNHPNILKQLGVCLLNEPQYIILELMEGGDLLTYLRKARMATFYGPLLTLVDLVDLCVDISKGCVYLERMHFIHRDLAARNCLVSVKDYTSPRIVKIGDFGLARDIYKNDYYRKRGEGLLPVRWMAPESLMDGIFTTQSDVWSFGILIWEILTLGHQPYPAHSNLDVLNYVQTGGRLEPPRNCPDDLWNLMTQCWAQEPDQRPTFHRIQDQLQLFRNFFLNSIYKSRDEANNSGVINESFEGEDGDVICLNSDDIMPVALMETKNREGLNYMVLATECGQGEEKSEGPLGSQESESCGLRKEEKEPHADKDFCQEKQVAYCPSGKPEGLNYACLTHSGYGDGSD", "assay": "Inhibition of ROS (unknown origin)"}, "[10]": {"species": "Homo sapiens", "assay": "Inhibition of FLT3 D835Y mutant (unknown origin) at 0.1 uM"}, "[11]": {"target": "Tyrosine-protein kinase JAK3 (Homo sapiens) (UniProt P52333)", "assay": "Inhibition of JAK3 (unknown origin) at 0.1 uM"}, "[12]": {"target": "T5, Focal adhesion kinase 1 (Homo sapiens, UniProt Q05397)", "T5 sequence (Q05397 2-1052 limits assumed)": "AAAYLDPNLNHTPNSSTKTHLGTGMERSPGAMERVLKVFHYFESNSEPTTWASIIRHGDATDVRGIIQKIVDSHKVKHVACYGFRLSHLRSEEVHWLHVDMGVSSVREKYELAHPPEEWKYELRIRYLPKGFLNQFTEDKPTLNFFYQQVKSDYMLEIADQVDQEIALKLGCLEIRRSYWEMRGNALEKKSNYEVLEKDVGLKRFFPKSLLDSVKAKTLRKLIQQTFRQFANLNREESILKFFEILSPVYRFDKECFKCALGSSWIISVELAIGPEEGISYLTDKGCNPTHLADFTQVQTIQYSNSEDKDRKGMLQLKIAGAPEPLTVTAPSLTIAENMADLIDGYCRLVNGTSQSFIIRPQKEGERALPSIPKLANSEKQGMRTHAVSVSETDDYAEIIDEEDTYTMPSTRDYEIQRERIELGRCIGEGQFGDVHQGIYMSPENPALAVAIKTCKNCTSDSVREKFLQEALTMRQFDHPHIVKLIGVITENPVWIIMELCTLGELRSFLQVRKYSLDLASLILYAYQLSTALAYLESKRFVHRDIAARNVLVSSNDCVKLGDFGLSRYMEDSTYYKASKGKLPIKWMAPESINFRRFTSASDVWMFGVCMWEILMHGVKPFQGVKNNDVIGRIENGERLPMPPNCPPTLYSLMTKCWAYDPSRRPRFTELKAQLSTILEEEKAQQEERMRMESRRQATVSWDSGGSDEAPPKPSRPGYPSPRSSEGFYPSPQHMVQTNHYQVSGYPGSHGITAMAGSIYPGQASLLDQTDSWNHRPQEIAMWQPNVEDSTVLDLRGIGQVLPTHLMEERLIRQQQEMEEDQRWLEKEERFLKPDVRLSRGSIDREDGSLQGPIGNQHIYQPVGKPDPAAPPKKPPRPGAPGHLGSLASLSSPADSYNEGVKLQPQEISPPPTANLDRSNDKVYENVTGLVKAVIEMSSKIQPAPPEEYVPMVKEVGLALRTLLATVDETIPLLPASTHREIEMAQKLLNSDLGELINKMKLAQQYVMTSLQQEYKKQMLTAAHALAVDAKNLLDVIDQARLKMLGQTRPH", "assay": "Inhibition of FAK (unknown origin) at 0.1 uM"}, "[13]": {"target": "T2, Tyrosine-protein kinase Fes/Fps", "assay": "Inhibition of Fes (unknown origin) at 0.1 uM"}, "[14]": {"target": "T3, Tyrosine-protein kinase JAK1", "assay": "Inhibition of JAK1 (unknown origin) at 0.1 uM"}, "[15]": {"target": "T4, Proto-oncogene tyrosine-protein kinase ROS", "assay": "Inhibition of ROS (unknown origin) at 0.1 uM"}, "[16]": {"tested_on": "Colon carcinoma cell", "assay": "Antiproliferative activity against human colon cancer cells assessed as growth inhibition measured after 72 hrs by MTT assay", "assay_type": "functional, cell-based"}, "[17]": {"tested_on": "NCI-H23", "assay": "Antiproliferative activity against human NCI-H23 cells assessed as growth inhibition measured after 72 hrs by MTT assay", "assay_type": "functional, cell-based"}, "[18]": {"tested_on": "BaF3", "assay": "Antiproliferative activity against mouse Ba/F3 cells harbouring FLT3 ITD D835Y mutant assessed as growth inhibition measured after 72 hrs by CellTiter-Glo assay", "assay_type": "functional", "conditions": "Mus musculus, BaF3"}, "[19]": {"tested_on": "BaF3", "assay": "Antiproliferative activity against mouse Ba/F3 cells harbouring FLT3 ITD F691I mutant assessed as growth inhibition measured after 72 hrs by CellTiter-Glo assay", "assay_type": "functional", "conditions": "Mus musculus, BaF3"}, "[20]": {"target": "T5, Focal adhesion kinase 1", "assay": "Inhibition of FAK in human HCT-116 cells assessed as inhibition of paxillin phosphorylation at 0.5 to 5 uM incubated for 24 hrs by Western blot analysis", "assay_type": "cell-based", "conditions": "dose 0.5-5 µM"}, "[21]": {"target": "T5, Focal adhesion kinase 1", "assay": "Inhibition of FAK in human HCT-116 cells assessed as inhibition of Pyk2 phosphorylation at 0.5 to 5 uM incubated for 24 hrs by Western blot analysis", "assay_type": "cell-based", "conditions": "dose 0.5-5 µM"}, "[22]": {"tested_on": "HCT-116", "assay": "Induction of apoptosis in human HCT-116 cells assessed as cleaved PARP at 0.1 to 10 uM incubated for 24 hrs by Western blot analysis", "assay_type": "functional, cell-based", "conditions": "dose 0.1-10 µM"}, "[23]": {"tested_on": "HCT-116", "assay": "Induction of apoptosis in human HCT-116 cells assessed as cleaved caspase-3 at 0.1 to 10 uM incubated for 24 hrs by Western blot analysis", "assay_type": "functional, cell-based", "conditions": "dose 0.1-10 µM"}, "[24]": {"tested_on": "MDA-MB-231", "assay": "Induction of apoptosis in human MDA-MB-231 cells assessed as cleaved caspase-3 at 0.1 to 10 uM incubated for 24 hrs by Western blot analysis", "assay_type": "functional, cell-based", "conditions": "dose 0.1-10 µM"}, "[25]": {"tested_on": "MDA-MB-231", "assay": "Growth inhibition of anchorage-Independent human MDA-MB-231 cells assessed as decrease in number of colonies incubated for 72 hrs by MTT assay", "assay_type": "functional, cell-based", "conditions": "dose 1-10 µM"}, "[26]": {"tested_on": "MDA-MB-231", "assay": "Growth inhibition of anchorage-Independent human MDA-MB-231 cells assessed as decrease in number of colonies at 10 uM incubated for 72 hrs by MTT assay relative to control", "assay_type": "functional"}, "[27]": {"tested_on": "HCT-116", "assay": "Growth inhibition of anchorage-Independent human HCT-116 cells assessed as decrease in number of colonies incubated for 72 hrs by MTT assay", "assay_type": "functional, cell-based", "conditions": "dose 1-10 µM"}, "[28]": {"tested_on": "MDA-MB-231", "assay": "In vivo antitumor activity against human MDA-MB-231 cells xenografted in Balb/c mouse assessed as tumor volume at 40 mg/kg, po once daily measured for 16 days (reference value: 600 mm^3)", "assay_type": "functional", "conditions": "time 16 day"}, "[29]": {"tested_on": "MDA-MB-231", "assay": "In vivo antitumor activity against human MDA-MB-231 cells xenografted in Balb/c mouse assessed as tumor volume at 70 mg/kg, po once daily measured for 16 days (reference value: 600 mm^3)", "assay_type": "functional", "conditions": "time 16 day"}, "[30]": {"tested_on": "MDA-MB-231", "assay": "Antitumor activity against human MDA-MB-231 cells xenografted in Balb/c mouse assessed as decrease in ki67 at 40 to 70 mg/kg, po once daily measured for 16 days by Immunohistochemical analysis", "assay_type": "functional, organism-based", "conditions": "dose 40-70 mg/kg, time 16.0 day"}, "[31]": {"tested_on": "MDA-MB-231", "assay": "Antimetastatic activity against human MDA-MB-231 cells expressing firefly luciferase xenografted NSG orthotopic mouse model assessed as reduction in luminescence intensity at lung at 70 mg/kg, po once daily measured for 2 weeks", "assay_type": "functional, organism-based"}, "[32]": {"tested_on": "MDA-MB-231", "assay": "Antimetastatic activity against human MDA-MB-231 cells expressing firefly luciferase xenografted NSG orthotopic mouse model assessed as suppression of lymphogenous metastasis at 70 mg/kg, po once daily measured for 2 weeks", "assay_type": "functional, organism-based"}, "[33]": {"tested_on": "MDA-MB-231", "assay": "Antimetastatic activity against human MDA-MB-231 cells expressing firefly luciferase xenografted NSG orthotopic mouse model assessed as reduction in luminescence intensity at liver at 70 mg/kg, po once daily measured for 2 weeks", "assay_type": "functional, organism-based"}, "[34]": {"tested_on": "MV4-11", "assay": "In vivo antitumor activity against human MV4-11 cells xenografted in mouse assessed as tumor growth inhibition at 20 mg/kg, po", "assay_type": "functional", "conditions": "MV4-11, po"}, "[35]": {"tested_on": "MV4-11", "assay": "In vivo antitumor activity against human MV4-11 cells xenografted in mouse assessed as tumor weight at 50 mg/kg, po relative to control", "assay_type": "functional, organism-based"}}, "note": "Activity calls are given as the source filed them. The calls are words filed in the database; no cut-off is given here.", "data": [{"molecule": "CCN1CCN(c2ccc(Nc3ncc4scc(-c5cccc(NS(C)(=O)=O)c5)c4n3)cc2)CC1", "values": [{"measurement": "GI50", "setting": "[1]", "result": 370, "unit": "nM"}, {"measurement": "inhibition at 10 µM", "setting": "[2]", "result": 89.2, "unit": "%"}, {"measurement": "inhibition at 10 µM", "setting": "[3]", "result": 90.6, "unit": "%"}, {"measurement": "IC50", "setting": "[4]", "result": 3.2, "unit": "nM"}, {"measurement": "IC50", "setting": "[5]", "result": 4.3, "unit": "nM"}, {"measurement": "IC50", "setting": "[6]", "result": 4.9, "unit": "nM"}, {"measurement": "IC50", "setting": "[7]", "result": 1.8, "unit": "nM"}, {"measurement": "IC50", "setting": "[8]", "result": 3.4, "unit": "nM"}, {"measurement": "IC50", "setting": "[9]", "result": 22, "unit": "nM"}, {"measurement": "inhibition", "setting": "[10]", "result": 98.4, "unit": "%"}, {"measurement": "inhibition", "setting": "[11]", "result": 96.7, "unit": "%"}, {"measurement": "inhibition", "setting": "[12]", "result": 95.6, "unit": "%"}, {"measurement": "inhibition", "setting": "[13]", "result": 95, "unit": "%"}, {"measurement": "inhibition", "setting": "[14]", "result": 93.8, "unit": "%"}, {"measurement": "inhibition", "setting": "[15]", "result": 92.9, "unit": "%"}, {"measurement": "Activity", "setting": "[16]", "result": "Active"}, {"measurement": "Activity", "setting": "[17]", "result": "Active"}, {"measurement": "GI50", "setting": "[18]", "result": 5.7, "unit": "nM"}, {"measurement": "GI50", "setting": "[19]", "result": 114, "unit": "nM"}, {"measurement": "inhibition", "setting": "[20]", "result": "Active"}, {"measurement": "inhibition", "setting": "[21]", "result": "Active"}, {"measurement": "Activity", "setting": "[22]", "result": "Active"}, {"measurement": "Activity", "setting": "[23]", "result": "Active"}, {"measurement": "Activity", "setting": "[24]", "result": "Active"}, {"measurement": "growth inhibition (GI)", "setting": "[25]", "result": "Dose-Dependent Effect"}, {"measurement": "inhibition at 10 µM", "setting": "[26]", "result": 75, "unit": "%"}, {"measurement": "growth inhibition (GI)", "setting": "[27]", "result": "Active"}, {"measurement": "Activity", "setting": "[28]", "result": 400, "unit": "mm3"}, {"measurement": "Activity", "setting": "[29]", "result": 300, "unit": "mm3"}, {"measurement": "Activity", "setting": "[30]", "result": "Active"}, {"measurement": "Activity", "setting": "[31]", "result": "Active"}, {"measurement": "Activity", "setting": "[32]", "result": "Active"}, {"measurement": "Activity", "setting": "[33]", "result": "Active"}, {"measurement": "inhibition in vivo at 20 mg/kg", "setting": "[34]", "result": 65, "unit": "%"}, {"measurement": "Activity", "setting": "[35]", "result": "Active"}]}]}
